Legend:
[1] = target: T1, yeast Gal4-DNA binding domain fused to the ligand binding domain of human RORγ (Homo sapiens, UniProt P51449); assay: RORγ Reporter Assay (Gal4); format: cell-based; settings: values given as lower bounds of ranges; for Gal4 activity range @ 0.1 μM (% inhibition): RORγ Reporter Assay (Gal4) at 0.1 μM; for Gal4 activity range @ 1 μM (% inhibition): RORγ Reporter Assay (Gal4) at 1 μM
T1 construct: host or cells: HEK293t
T1 sequence (P51449 269-508 limits assumed): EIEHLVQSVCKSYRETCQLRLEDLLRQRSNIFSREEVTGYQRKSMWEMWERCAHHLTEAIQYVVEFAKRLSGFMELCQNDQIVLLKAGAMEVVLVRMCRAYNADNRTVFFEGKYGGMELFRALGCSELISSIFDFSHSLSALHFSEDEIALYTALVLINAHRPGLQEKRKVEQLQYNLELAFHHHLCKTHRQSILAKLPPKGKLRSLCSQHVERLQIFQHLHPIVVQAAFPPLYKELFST
Method: The activity of the compounds was evaluated using a Fluorescence Polarization (FP) Assay and, in most cases, a Th17 Assay and/or RORγ Reporter assay (also referred to as Gal4 assay). The FP assay is an in vitro assay monitoring binding within the ligand binding pocket. The RORγ and the Th17 assays are both cell-based assays monitoring functional activity of the compound assayed.
Cell-based RORγ functional assays were performed using a commercially available assay product (INDIGO Biosciences, State College, Pa., USA; product # IB04001). The RORγ reporter cells are HEK293t cells transfected with one vector that provides high level constitutive expression of a hybrid protein comprised of the yeast Gal4-DNA binding domain fused to the ligand binding domain of human RORγ, and a second vector comprising the firefly luciferase cDNA functionally linked to the upstream activation sequence (UAS) of yeast Gal4. A suspension of RORγ Reporter Cells was prepared using the protocol and culture medium provided in the kit product, and 100 μl of the Reporter Cell suspension was then dispensed into wells of a white, collagen-treated, 96-well assay plate. Concentrated stocks of test compounds were prepared in DMSO, then further diluted using media provided in the kit to generate ‘2×-concentration’ treatment media. 100 μl of medium for each respective treatment concentration dispensed into triplicate assay wells, thereby combining with the reporter cells. All media formulations contained 10% charcoal stripped Fetal Bovine Serum, but are otherwise proprietary to INDIGO Biosciences. Final treatment concentrations for each test compound were 1,000 nM and 100 nM, each with 0.1% residual DMSO. Separate control treatments were media supplemented with vehicle only (0.1% DMSO) to determine the constitutive level of RORγ activity in the reporter cells, and the reference inverse-agonist ursolic acid (f.c. 6,000 nM to 8.2 nM in 3-fold decrements) to establish a positive control inverse-agonist dose response. Assay plates were placed in a 37° C., 5% CO2, 85% humidity incubator for 24 hour. Treatment media were then discarded, 100 μl of luciferase detection reagent was added to each well, and relative light units (RLUs) were quantified from each assay well using a plate reading luminometer. Values of average RLU+/−standard deviation were computed for all treatment sets, followed by the calculations of fold-reduction: [Average RLUVehicle/Average RLUTest Cmpd]. Percent-reduction of RORγ activity in response to respective test compound treatments was calculated: [100*(1−[Ave RLUTest Cmpd/Ave RLUVehicle)] where the theoretical minimum reduction (0% reduction) derives from Vehicle treatment only, no treatment compound.

[2] = target: T2, human RORγt (Ligand Binding Domain) (Homo sapiens, UniProt P51449); assay: Fluorescence Polarization (FP) Assay; settings: Fluorescence Polarization (FP) Assay; values given as upper bounds of activity ranges; read-out: FP activity range
T2 construct: purchased Crelux (Planegg, Germany) batch no PC5032-1
T2 sequence (P51449 269-508 limits assumed): T1 sequence (P51449 269-508 limits assumed)
Summary of the method: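 Binding to the ligand pocket followed by fluorescence polarization with a TAMRA-tagged RORγt ligand probe of 910 g/mole. Negative control wells received DMSO only.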

Row | SMILES | Gal4 activity range @ 0.1 μM (% inhibition) [1] | Gal4 activity range @ 1 μM (% inhibition) [1] | IC50 [2]
1 | OC1CCCCC1CNc1ncnc(N2CCC[C@@H]2c2ccc(C(F)(F)F)cc2)c1F (stereo partly drawn) [Example 200, 2-[[[5-fluoro-6-[(2R)-2-[4-(trifluoromethyl)phenyl]pyrrolidin-1-yl]pyrimidin-4-yl]amino]methyl]cyclohexanol] | >20 % inhibition | >80 % inhibition | < 1 µM
2 | O=C(O)Cc1ccc(CNc2ncnc(N3CCOCC3c3ccccc3)c2F)s1 (stereo not drawn) [Example 282, 2-[5-[[[5-fluoro-6-(3-phenylmorpholin-4-yl)pyrimidin-4-yl]amino]methyl]-2-thienyl]acetic acid] | >0 % inhibition | >0 % inhibition | < 10 µM
3 | COC1CCCCC1CNc1ncnc(N2CCC[C@@H]2c2ccc(C(F)(F)F)cc2)c1F (stereo partly drawn) [Example 168, 5-fluoro-N-[(2-methoxycyclohexyl)methyl]-6-[(2R)-2-[4-(trifluoromethyl)phenyl]pyrrolidin-1-yl]pyrimidin-4-amine] | >50 % inhibition |  | < 0.5 µM
4 | CNC(=O)C1(CNc2ncnc(N3CCOC[C@@H]3c3ccc(C(F)(F)F)cc3)c2F)CCOCC1 [Example 286, 4-[[[5-fluoro-6-[(3S)-3-[4-(trifluoromethyl)phenyl]morpholin-4-yl]pyrimidin-4-yl]amino]methyl]-N-methyl-tetrahydropyran-4-carboxamide] | >20 % inhibition | >20 % inhibition | < 2 µM
5 | Cc1ccc(COc2ncnc(N3CCCC3c3ccc(C(F)(F)F)c(F)c3)c2F)cn1 (stereo not drawn) [Example 73, 5-fluoro-4-[2-[3-fluoro-4-(trifluoromethyl)phenyl]pyrrolidin-1-yl]-6-[(6-methyl-3-pyridyl)methoxy]pyrimidine] | >0 % inhibition | >20 % inhibition | < 2 µM
6 | CCC(Nc1ncnc(N2CCCC2c2ccc(C(F)(F)F)cc2)c1F)c1ccc2c(c1)OCCCO2 (stereo not drawn) [Example 55, N-[1-(3,4-dihydro-2H-1,5-benzodioxepin-7-yl)propyl]-5-fluoro-6-[2-[4-(trifluoromethyl)phenyl]pyrrolidin-1-yl]pyrimidin-4-amine] |  |  | < 10 µM
7 | NC(=O)C1CCCN(c2ccc(CNc3ncnc(N4CCCC4c4ccc(C(F)(F)F)cc4)c3F)cc2)C1 (stereo not drawn) [Example 61, 1-[4-[[[5-fluoro-6-[2-[4-(trifluoromethyl)phenyl]pyrrolidin-1-yl]pyrimidin-4-yl]amino]methyl]phenyl]piperidine-3-carboxamide] |  |  | < 10 µM
8 | Fc1c(NCC2CCCS2)ncnc1N1CCC[C@@H]1c1ccc(C(F)(F)F)cc1 (stereo partly drawn) [Example 159, 5-fluoro-N-(tetrahydrothiophen-2-ylmethyl)-6-[(2R)-2-[4-(trifluoromethyl)phenyl]pyrrolidin-1-yl]pyrimidin-4-amine] |  |  | < 2 µM
9 | CCC(Nc1ncnc(N2CCCC2c2ccc(C(F)(F)F)cc2)c1F)c1noc(C)n1 (stereo not drawn) [Example 215, 5-fluoro-N-[1-(5-methyl-1,2,4-oxadiazo1-3-yl)propyl]-6-[2-[4-(trifluoromethyl)phenyl]pyrrolidin-1-yl]pyrimidin-4-amine] |  |  | < 10 µM
10 | Fc1c(NCc2ccc(C(F)(F)F)cc2)ncnc1N1CCCC1c1ccc(C(F)(F)F)cc1 (stereo not drawn) [Example 48, 5-fluoro-N-[[4-(trifluoromethyl)phenyl]methyl]-6-[2-[4-(trifluoromethyl)phenyl]pyrrolidin-1-yl]pyrimidin-4-amine] |  |  | < 2 µM
11 | NC(=O)Cc1ccc(CNc2ncnc(N3CCCC3c3ccc4ccccc4c3)c2F)cc1 (stereo not drawn) [Example 312, 2-[4-[[[5-fluoro-6-[2-(2-naphthyl)pyrrolidin-1-yl]pyrimidin-4-yl]amino]methyl]phenyl] acetamide] |  |  | < 0.5 µM
12 | O=C1CC(CNc2ncnc(N3CCCC3c3ccc(C(F)(F)F)cc3)c2F)CN1C1CCCC1 (stereo not drawn) [Example 130, 1-cyclopentyl-4-[[[5-fluoro-6-[2-[4-(trifluoromethyl)phenyl]pyrrolidin-1-yl]pyrimidin-4-yl]amino]methyl]pyrrolidin-2-one] |  |  | < 10 µM
13 | CS(=O)(=O)c1ccc(Cn2ccc3c(N4CCOC[C@@H]4c4ccc(OC(F)(F)F)cc4)ncnc32)nc1 [Example 330, (3S)-4-[7-[(5-methylsulfonyl-2-pyridyl)methyl]pyrrolo[2,3-d]pyrimidin-4-yl]-3-[4-(trifluoromethoxy)phenyl] morpholine] |  |  | < 2 µM
14 | CN1CC(CN(C)c2ncnc(N3CCCC3c3ccc(C(F)(F)F)cc3)c2F)CC1=O (stereo not drawn) [Example 135, 4-[[[5-fluoro-6-[2-[4-(trifluoromethyl)phenyl]pyrrolidin-1-yl]pyrimidin-4-yl]-methyl-amino]methyl]-1-methyl-pyrrolidin-2-one] |  |  | < 10 µM

The next lines start with the values.

Row | Gal4 activity range @ 0.1 μM (% inhibition) [1] | Gal4 activity range @ 1 μM (% inhibition) [1] | IC50 [2] | SMILES
15 | >0 % inhibition | >20 % inhibition | < 0.5 µM | NC(=O)Cc1ccc(CNc2ncnc(N3CC(=O)CC3c3ccc(C(F)(F)F)cc3)c2F)cc1 (stereo not drawn) [Example 280, 2-[4-[[[5-fluoro-6-[4-oxo-2-[4-(trifluoromethyl)phenyl]pyrrolidin-1-yl]pyrimidin-4-yl]amino]methyl]phenyl]acetamide]
16 |  |  | < 1 µM | CS(=O)(=O)c1ccc(CNc2ncnc(N3CCOC[C@@H]3c3ccc(C(F)(F)F)cc3)c2F)cn1 [Example 293, 5-fluoro-N-[(6-methylsulfonyl-3-pyridyl)methyl]-6-[(3S)-3-[4-(trifluoromethyl)phenyl]morpholin-4-yl]pyrimidin-4-amine]
17 |  |  | < 0.5 µM | CC(C)(C)C[C@@H](Nc1ncnc(N2CCCC2c2ccc(Cl)cc2Cl)c1F)C(N)=O (stereo partly drawn) [Example 11, (2R)-2-[[6-[2-(2,4-dichlorophenyl)pyrrolidin-1-yl]-5-fluoro-pyrimidin-4-yl]amino]-4,4-dimethyl-pentanamide]
18 |  |  | < 10 µM | Fc1c(NCC2CCCO2)ncnc1N1CCC[C@@H]1c1ccc(C(F)(F)F)cc1 (stereo partly drawn) [Example 181, 5-fluoro-N-(tetrahydrofuran-2-ylmethyl)-6-[(2R)-2-[4-(trifluoromethyl)phenyl]pyrrolidin-1-yl]pyrimidin-4-amine]
19 |  |  | < 10 µM | CC(C)(CCS(C)(=O)=O)CNc1ncnc(N2CCOC[C@@H]2c2ccc(C(F)(F)F)cc2)c1F [Example 294, N-(2,2-dimethyl-4-methylsulfonyl-butyl)-5-fluoro-6-[(3S)-3-[4-(trifluoromethyl)phenyl]morpholin-4-yl]pyrimidin-4-amine]
20 |  |  | < 1 µM | NC(=O)Cc1ccc(CNc2ncnc(N3C[C@H](F)C[C@@H]3c3ccc(C(F)(F)F)cc3)c2F)cc1 (racemic) [Example 241, 2-[4-[[[5-fluoro-6-[(2R,4R)-4-fluoro-2-[4-(trifluoromethyl)phenyl]pyrrolidin-1-yl]pyrimidin-4-yl]amino]methyl]phenyl]acetamide AND 2-[4-[[[5-fluoro-6-[(2S,4S)-4-fluoro-2-[4-(trifluoromethyl)phenyl]pyrrolidin-1-yl]pyrimidin-4-yl]amino]methyl]phenyl]acetamide]
21 |  |  | < 0.5 µM | CC(C)(C)CC(Nc1ncnc(N2CCCC2c2ccc3c(c2)OCCO3)c1F)C(N)=O (stereo in doubt) [Example 24, (2R)-2-[[6-[2-(2,3-dihydro-1,4-benzodioxin-6-yl)pyrrolidin-1-yl]-5-fluoro-pyrimidin-4-yl]amino]-4,4-dimethyl-pentanamide]
22 |  |  | < 2 µM | Fc1c(NCc2ccccc2)ncnc1N1CCCC1c1ccc(C(F)(F)F)cc1 (stereo not drawn) [Example 139, N-benzyl-5-fluoro-6-[2-[4-(trifluoromethyl)phenyl]pyrrolidin-1-yl]pyrimidin-4-amine]

Source: patent publication US10689383B2, “Optionally fused heterocyclyl-substituted derivatives of pyrimidine useful for the treatment of inflammatory, metabolic, oncologic and autoimmune diseases” (NUEVOLUTION A/S, priority 2014, dated 2020)
